Measured values published in patent US20090076136A1, “THERAPEUTIC AGENT” (priority 2003, published 2009).

Legend:
3T3-L1 cells = test: Inducing action on differentiation into adipocytes: amount of triglyceride in the adipocytes; type: cell-based
Procedure: Induction of differentiation into adipocytes was carried out by partially modifying the above-mentioned method of Rubin C. S. et al. In addition, as a compound (P001), a compound prepared in Example 4 was used. 3T3-L1 cells were suspended in a 10% (w/v) calf serum-containing Dulbecco's modified Eagle's medium containing 200 μM ascorbic acid so as to have a density of 4×10^3 cells/mL, and the suspension was put in each well of a 12-well microtiter plate in an amount of 2 mL per well. The cells were cultured at 37° C. for 7 days in the presence of 5% carbon dioxide gas. On the seventh day, the medium was exchanged with a 10% fetal bovine serum-containing Dulbecco's modified Eagle's medium containing 200 μM ascorbic acid and 0.25 μM dexamethasone, and 4 μL of a 15 mM dimethyl sulfoxide solution of the compound (P001), a 5 mM dimethyl sulfoxide solution of the compound (P001), or a 1.5 mM dimethyl sulfoxide solution of the compound (P001) was added to each well. Here, there were set a group with addition of 4 μL of a 5 mg/mL aqueous solution of insulin as a positive control, and a group with addition of dimethyl sulfoxide as a negative control. After 48 hours, the medium was exchanged with a 10% fetal bovine serum-containing Dulbecco's modified Eagle's medium containing 200 μM ascorbic acid, and 4 μL of a 15 mM dimethyl sulfoxide solution of the compound (P001), a 5 mM dimethyl sulfoxide solution of the compound (P001), or a 1.5 mM dimethyl sulfoxide solution of the compound (P001), a group with addition of 2 μL of a 5 mg/mL aqueous solution of insulin as a positive control, or a group with addition of dimethyl sulfoxide as a negative control was put to each well. The cells were cultured for additional 7 days. Here, the medium was exchanged after 2 days and after 5 days, and at that time, 4 μL of a 15 mM dimethyl sulfoxide solution of the compound (P001), a 5 mM dimethyl sulfoxide solution of the compound (P001), or a 1.5 mM dimethyl sulfoxide solution of the compound (P001), a group with addition of 2 μL of a 5 mg/mL aqueous solution of insulin as a positive control, or a group with addition of dimethyl sulfoxide as a negative control was put to each well. […]
The amount of triglyceride in the adipocytes was determined as an index for inducing differentiation into mature adipocytes, and also as the evaluation of insulin-mimetic action.
After the termination of the culture, the medium was removed, and the cells were washed twice with a phosphate buffered saline. One milliliter of a solvent of hexane:isopropanol=3:2 was added to the cells. The mixture was allowed to stand at room temperature for 30 minutes, and thereafter the supernatant was collected. The procedures were repeated again, and 2 mL of the supernatant was concentrated to dryness. The precipitates were dissolved in 100 μL of isopropanol, and the amount of triglyceride contained in 10 μL of the solution was determined using a triglyceride E-test (manufactured by Wako Pure Chemical Industries, Ltd., code 432-40201). In addition, all the determinations were carried out twice.

mouse = test: Single-dose oral toxicity in mouse; type: in vivo; settings: 1 g/kg weight
Procedure: No toxicity is found even when the above-mentioned effective ingredient used in the present invention is administered in an effective dose for the exhibition of its action.

[1] = test system: mature adipocytes (3T3-L1 cells); test: Enhancing action on glucose uptake: 2-deoxyglucose uptake into mature adipocytes; type: cell-based
Procedure: The induction of differentiation into mature adipocytes was carried out by partially modifying the method of Rubin C. S. et al. (JBC. 253 7570-7578, 1978). 3T3-L1 cells (ATCC CCL-92.1) were suspended in a 10% calf serum (manufactured by ICN)-containing Dulbecco's modified Eagle's medium (manufactured by Sigma, D6046) containing 200 μM ascorbic acid so as to have a density of 4×10^3 cells/mL, and the suspension was put in each well of a 12-well microtiter plate in an amount of 2 mL per well. The cells were cultured at 37° C. for 7 days in the presence of 5% carbon dioxide gas. On the seventh day, the medium was exchanged with […] of a 10% fetal bovine serum (manufactured by GIBCO)-containing Dulbecco's modified Eagle's medium containing 200 μM ascorbic acid, 0.25 μM dexamethasone, 10 μg/mL insulin (manufactured by TAKARA BIO INC.) and 0.5 mM 3-isobutyl-1-methylxanthine (manufactured by Nacalai Tesque, Inc., 19624-86). After 45 hours, the medium was exchanged with 2 mL of a 10% fetal bovine serum-containing Dulbecco's modified Eagle's medium containing 200 μM ascorbic acid and 5 μg/mL insulin. The medium was exchanged on after 2 days and 5 days, and the cells were cultured for 7 days, to give mature adipocytes.
As the evaluation of enhancing action on glucose uptake, and also as the evaluation of insulin-mimetic action, the amount of 2-deoxyglucose uptake into mature adipocytes stimulated with the sample in the adipocytes was determined.
After the termination of the culture, the medium was removed, and the cells were washed twice with a 0.1% (w/v) bovine serum albumin (manufactured by Sigma, A8022)-containing Dulbecco's modified Eagle's medium. Thereafter, 1 mL of the same medium was put to each well. The cells were cultured overnight at 37° C. in the presence of 5% carbon dioxide gas. After the overnight culture, the cells were washed twice with a HEPES buffered saline (140 mM NaCl, 5 mM KCl, 2.5 mM MgSO4, 1 mM CaCl2, 20 mM HEPES-Na (pH 7.4)), and 0.9 mL of the same buffer was added thereto. The cells were cultured at 37° C. for 75 minutes. […] […] Thereafter, 100 μL of a HEPES buffered saline containing 2-deoxy-[1,2-^3H(N)]-glucose (manufactured by PerkinElmer Life Sciences Inc., NET549A) and 1 mM 2-deoxyglucose (manufactured by Nacalai Tesque, Inc., 10722-11) was added thereto at a final concentration of 0.5 μCi/mL, and the cells were further cultured at 37° C. for 10 minutes. After the termination of the culture, the supernatant was removed, the cells were washed three times with a phosphate buffer cooled to 4° C., and 0.5 mL of a 1% Nonidet P-40-containing phosphate buffer was added to lyse the cells, whereby 2-deoxy-[1,2-^3H(N)]-glucose taken into the cells was eluted. The radioactivity was determined with a liquid scintillation counter LS6500 (manufactured by Beckmann) using 25 μL of the supernatant with Ultima Gold (manufactured by PerkinElmer Life Sciences Inc., 6013329) as a scintillation cocktail.

[2] = test system: glucose transporter (mature adipocytes); test: Influence of cytochalasin B on 2-deoxyglucose uptake in mature adipocytes; type: cell-based; settings: cytochalasin B 40 μM, in every group (polygodial 3 μM, insulin 1 μg/mL, negative control)
Procedure: Specifically, as a sample, there was set a group with addition of a dimethyl sulfoxide solution of polygodial so as to have a final concentration of 3 μM. […] Furthermore, in each group, there was set a group with addition of cytochalasin B (manufactured by Nacalai Tesque, Inc., 10435-81) so as to have a final concentration 40 μM at the same time as the time of addition of the sample and insulin. Thereafter, the amount of 2-deoxy-[1,2-^3H(N)]-glucose taken into the adipocytes was determined in the same manner.

[3] = final concentration 30 μM, 10 μM or 3 μM
[4] = final concentration 10 μM, 3 μM or 1 μM, FIG. 2, FIG. 3

SMILES: CC1(C)CCCC2(C)C3COC(=O)C3=CCC12 (stereo not shown) [P006, 5,5a,6,7,8,9,9a,9b-octahydro-6,6,9a-trimethyl-naphtho[1,2-c]furan-3(1H)-one]
- biosynthesis of triglyceride (index of differentiation into mature adipocytes) (3T3-L1 cells; [3]): induction of biosynthesis of triglyceride was found
- deaths after oral administration (mouse): no cases of deaths are found

SMILES: CC(=O)OCC1=CCC2C(C)(C)CCCC2(C)C1C=O (stereo not shown) [P007, 1-[(acetyloxy)methyl]-1,4,4a,5,6,7,8,8a-octahydro-5,5,8a-trimethyl-2-naphthalenecarboxyaldehyde]
- biosynthesis of triglyceride (index of differentiation into mature adipocytes) (3T3-L1 cells; [3]): induction of biosynthesis of triglyceride was found
- deaths after oral administration (mouse): no cases of deaths are found

SMILES: CC1(C)C[C@H]2C=C(C=O)[C@]3(C=O)C[C@]3(C)[C@H]2C1 [isovelleral]
- 2-deoxy-[1,2-3H(N)]-glucose uptake compared to the negative control ([1]; final concentration 3 μM or 1 μM, FIG. 24): enhancement of 2-deoxy-[1,2-^3H(N)]-glucose uptake was found
- deaths after oral administration (mouse): no cases of deaths are found

SMILES: CC(=O)O[C@@H]1C[C@@H]2[C@@]3(C)CCCC(C)(C)[C@@H]3CC[C@@]2(C)[C@@H]2CC=C(C=O)[C@H](C=O)[C@@]12C [12-epi-scalaradial]
- 2-deoxy-[1,2-3H(N)]-glucose uptake compared to the negative control [1, 4]: enhancement of 2-deoxy-[1,2-^3H(N)]-glucose uptake was found
- deaths after oral administration (mouse): no cases of deaths are found

SMILES: CC1(C)CCCC2(C)C1=CCC1=C2C(=O)OC1 (stereo not shown) [P003, 4,6,7,8,9,9a-hexahydro-6,6,9a-trimethyl-naphtho[1,2-c]furan-1(3H)-one]
- biosynthesis of triglyceride (index of differentiation into mature adipocytes) (3T3-L1 cells; [3]): induction of biosynthesis of triglyceride was found
- 2-deoxy-[1,2-3H(N)]-glucose uptake compared to the negative control ([1]; final concentration 30 μM or 10 μM, sample added at each exchange of BSA medium or HEPES buffered saline, FIG. 23): enhancement of 2-deoxy-[1,2-^3H(N)]-glucose uptake was found
- deaths after oral administration (mouse): no cases of deaths are found

SMILES: CC1(C)CCCC2(C)C(CO)C(CO)=CCC12 (stereo not shown) [P005, 1,4,4a,5,6,7,8,8a-octahydro-5,5,8a-trimethyl-1,2-naphthalenedimethanol]
- biosynthesis of triglyceride (index of differentiation into mature adipocytes) (3T3-L1 cells; final concentration 30 μM or 10 μM, FIG. 14): induction of biosynthesis of triglyceride was found
- deaths after oral administration (mouse): no cases of deaths are found

SMILES: COC(=O)C1=CCC2C(C)(C)CCCC2(C)C1C(=O)OC (stereo not shown) [P004, dimethyl 1,4,4a,5,6,7,8,8a-octahydro-5,5,8a-trimethyl-1,2-naphthalenedicarboxylate]
- biosynthesis of triglyceride (index of differentiation into mature adipocytes) (3T3-L1 cells; final concentration 10 μM, 3 μM or 1 μM, FIG. 12): induction of biosynthesis of triglyceride was found
- 2-deoxy-[1,2-3H(N)]-glucose uptake compared to the negative control ([1]; final concentration 30 μM, 10 μM or 3 μM, FIG. 11): enhancement of 2-deoxy-[1,2-H(N)]-glucose uptake was found
- deaths after oral administration (mouse): no cases of deaths are found

SMILES: CC1(C)CCCC2(C)C1=CCC(CO)=C2CO (stereo not shown) [P002, 3,5,6,7,8,8a-hexahydro-5,5,8a-trimethyl-1,2-naphthalenedimethanol]
- biosynthesis of triglyceride (index of differentiation into mature adipocytes) (3T3-L1 cells; final concentration 30 μM or 3 μM, FIG. 7): induction of biosynthesis of triglyceride was found
- deaths after oral administration (mouse): no cases of deaths are found

SMILES: CC1(C)CCCC2(C)C1CCC1(CO1)C2C/C=C(/C=O)CC=O (stereo not shown) [miogadial]
- deaths after oral administration (mouse): no cases of deaths are found

SMILES: CC(=O)OCC1=CCC2C(C)(C)CCCC2(C)C1C=O (stereo not shown) [P008, 2-[(acetyloxy)methyl]-1,4,4a,5,6,7,8,8a-octahydro-5,5,8a-trimethyl-1-naphthalenecarboxyaldehyde]
- biosynthesis of triglyceride (index of differentiation into mature adipocytes) (3T3-L1 cells; final concentration 10 μM or 3 μM, FIG. 20): induction of biosynthesis of triglyceride was found
- deaths after oral administration (mouse): no cases of deaths are found

SMILES: C=C1[C@@H](C)[C@H]2[C@H](Cc3ccccc3)NC(=O)[C@]23OC(=O)/C=C/[C@H](O)CCC[C@@H](C)C/C=C/[C@H]3[C@@H]1O [cytochalasin B, reference compound]
- 2-deoxy-[1,2-3H(N)]-glucose uptake on addition of cytochalasin B [2]: almost completely inhibited

SMILES: O=Cc1cc2ccccc2cc1C=O [naphthalene-2,3-dicarboxyaldehyde]
- 2-deoxy-[1,2-3H(N)]-glucose uptake compared to the negative control [1, 4]: enhancement of 2-deoxy-[1,2-^3H(N)]-glucose uptake was found
- deaths after oral administration (mouse): no cases of deaths are found

SMILES: COC(=O)C1=C(C(=O)OC)C2(C)CCCC(C)(C)C2=CC1 (stereo not shown) [P001, dimethyl 3,5,6,7,8,8a-hexahydro-5,5,8a-trimethyl-1,2-naphthalenedicarboxylate]
- biosynthesis of triglyceride (index of differentiation into mature adipocytes) (3T3-L1 cells; [3]): induction of biosynthesis of triglyceride was found
- deaths after oral administration (mouse): no cases of deaths are found

SMILES: CC1(C)CCC[C@]2(C)[C@H](C=O)C(C=O)=CC[C@@H]12 [epipolygodial]
- 2-deoxy-[1,2-3H(N)]-glucose uptake compared to the negative control ([1]; final concentration 3 μM, 1 μM or 0.3 μM, FIG. 25): enhancement of 2-deoxy-[1,2-^3H(N)]-glucose uptake was found
- deaths after oral administration (mouse): no cases of deaths are found
